Molecules are shown by their SMILES. Read-outs that look alike come from different tables or passages of the source.

Usually DC50 stands for the midpoint of the concentration-degradation curve. Usually IC50 stands for the point on the concentration scale where inhibition reaches its midpoint.

The target of experiment [1] is HiBiT tagged BRD4-BD1 protein in HEK293/LgBiT/hPGK/HiBiT-BRD4-BD1 cells (Homo sapiens, UniProt O60885). Put plainly: BET BD1 domain degradation assay. Type of experiment: cell-based. The arrangement: HiBit-linker-BRD4 BD1(1-209); host or cells: HEK293 (ATCC CRL-1573) stably transduced with LgBiT and HiBiT-BRD4-BD1. As to conditions: concentration for 50% reduction in HiBiT-BRD4-BD1 protein level, 3 hours, read-out: Absolute DC50—3 h (nM) HEK293_HiBiT-BRD4-BD1. The text has this: HEK293/LgBiT/hPGK/HiBiT-BRD4-BD1 cells were established by introducing LgBiT and HiBiT-BRD4-BD1 into the human fetus renal cell line HEK293 (ATCC Number CRL-1573). LgBiT was introduced using lentivirus vector LV[Exp]-Bsd-EFS>{LgBiT}, and HiBiT-BRD4-BD1 was introduced with lentivirus vector LV[Exp]-Puro-hPGK>{HiBit-linker-BRD4 BD1(1-209)}. The vector plasmids LV[Exp]-Bsd-EFS>{LgBiT} and LV[Exp]-Puro-hPGK>{HiBit-linker-BRD4_BD1(1-209)} were constructed by VectorBuilder Co. The lentivirus was produced using a Mission Lentivirus Packaging Mix (Sigma) according to the manufacturer's protocol. Viral infection and drug selection of infected cells were carried out by the following published method (Akagi T. et. al, PNAS 2003; 100:13567-72). The cells were maintenance cultured in a 5% CO2 incubator (37° C.), using culture medium. A 45 μL portion of cell suspension of HEK293/LgBiT/hPGK/HiBiT-BRD4-BD1 cells prepared to 6.7×10^4 cells/mL using culture medium was added to each well of a collagen I-coated 384-well plate (Falcon 356667), and the cells were cultured overnight in a 5% CO2 incubator (37° C.). On the following day, 5 μL of test substance diluted with RPMI-1640 (FujiFilm-Wako Pure Chemical Industries) containing 10% fetal bovine serum (FBS: SIGMA 173012) and penicillin/streptomycin (FujiFilm-Wako Pure Chemical Industries) was added to each well, and culturing was continued for 3 hours in a 5% CO2 incubator (37° C.). The luminous intensity was measured using a Nono-Glo HiBiT Lytic Detection System (Promega), and the intracellular HiBiT tagged BRD4-BD1 protein level was calculated. After culturing, 25 μL of measuring reagent was added to each well and the plate contents were mixed for 5 minutes using a plate mixer. The plate was stationed for 10 minutes at room temperature while shielded from light, and then the luminous intensity was measured with an ENVISION′ (Perkin-Elmer). The luminescence value of the wells with addition of test substance was determined as a relative value, with 100% as the luminescence value of the wells with cells but without addition of the test substance, and 0% as the luminescence value of the wells without cells. A plot of test substance concentration against luminescence value % approximated a 4-parameter logistic curve, and the test substance concentration necessary for 50% reduction in protein level (Absolute DC50) was calculated and is shown in Table 4.
In general terms: HiBiT is a short tag that completes a luciferase, so light tracks the accessible tagged protein.

In another experiment the test system is AsPC-1/Cas9 cell line. Briefly: AsPC-1/Cas9 growth inhibition assay. The format is cell-based, human. As to conditions: AsPC-1/Cas9 cells, 5 days culture, CellTiter Glo 2.0, read-out: Absolute IC50—Day 5 (nM) AsPC-1 Cas9. As for the experimental part:
The human pancreatic cancer cell line AsPC-1 (ATCC Number CRL1682) was infected with Edit-R Lentiviral hCMV-Blast-Cas9 Nuclease Particle (Dharmacon, VCAS10124) in the presence of 8 μg/ml of Hexadimethrine bromide (Sigma, H9268), and after 24 hours it was exposed to 10 μg/ml of Blastcidin S (Thermo, A11139) to remove the uninfected cells, thereby establishing an AsPC-1/Cas9 cell line. The cells were maintenance cultured in a 5% CO2 incubator (37° C.) using RPMI-1640 (FujiFilm-Wako Pure Chemical Industries) containing 10% fetal bovine serum (FBS: SIGMA 173012) and penicillin/streptomycin (FujiFilm-Wako Pure Chemical Industries) (hereunder referred to simply as “culture medium”). After adding 45 μL of AsPC-1/Cas9 cell suspension prepared to 2.0×10^4 cells/mL using culture medium into each well of a 384-well plate (Greiner 781091), the cells were cultured overnight in a 5% CO2 incubator (37° C.). On the following day, 5 μL of the test substance diluted with culture medium was added to each well, and culturing was continued for 5 days in a 5% CO2 incubator (37° C.). Next, 25 μL of CellTiter Glo™ 2.0 (Promega) was added to each well, and the plate contents were mixed for 5 minutes using a plate mixer. The plate was stationed for 10 minutes at room temperature while shielded from light, and then the luminous intensity was measured with an ENVISION™ (Perkin-Elmer). The luminescence value of the wells with addition of test substance was determined as a relative value, with 100% as the luminescence value of the wells with cells but without addition of the test substance, and 0% as the luminescence value of the wells without cells. A plot of test substance concentration against luminescence value % approximated a 4-parameter logistic curve, and the test substance concentration necessary for 50% inhibition of cell growth (Absolute IC50) was calculated, and is shown in Table 4.
(In ATP-based viability assays light output follows the ATP content of the culture.)

Consider `COc1ccc(C(=O)NC2(C)CCN(C3CCN(c4nc([C@@](CO)(OC5CC5)c5ccccc5)c5cc(-c6cn(C)c(=O)c7[nH]ccc67)ccc5n4)CC3)CC2)cc1N1CCC(=O)NC1=O` (stereo in doubt) [Example 104, N-(1′-(4-(1-Cyclopropoxy-2-hydroxy-1-phenylethyl)-6-(6-methyl-7-oxo-6,7-dihydro-1H-pyrrolo[2,3-c]pyridin-4-yl)quinazolin-2-yl)-4-methyl-[1,4′-bipiperidin]-4-yl)-3-(2,4-dioxotetrahydropyrimidine-1(2H)-yl)-4-methoxybenzamide], for which the DC50 in experiment [1] worked out at 0.15 nM. In addition, the half-maximal inhibitory concentration (IC50) in the experiment with AsPC-1/Cas9 cell line (Homo sapiens, ASPC1, 120 h) came out at 0.073 nM.
Consider `COc1ccc(C#CCNC2(C)CCN(C3CCN(c4nc(C(CO)(OC5CC5)c5ccccc5)c5cc(-c6cn(C)c(=O)c7[nH]ccc67)ccc5n4)CC3)CC2)cc1N1CCC(=O)NC1=O` (stereo in doubt) [Example 145, (R)-1-(5-(3-((1′-(4-(1-Cyclopropoxy-2-hydroxy-1-phenylethyl)-6-(6-methyl-7-oxo-6,7-dihydro-1H-pyrrolo[2,3-c]pyridin-4-yl)quinazolin-2-yl)-4-methyl-[1,4′-bipiperidin]-4-yl)amino)prop-1-yn-1-yl)-2-methoxyphenyl)dihydropyrimidine-2,4(1H,3H)-dione], for which the DC50 in experiment [1] came out at 0.045 nM. The concentration for half-maximal inhibition (IC50) in the experiment with AsPC-1/Cas9 cell line was 0.18 nM.
For `COc1ccc(C#CCNC2(C)CCN(C3CCN(c4nc([C@@](CO)(OC5CC5)c5ccccc5)c5cc(-c6cn(C)c(=O)c7[nH]ccc67)ccc5n4)CC3)CC2)cc1N1CCC(=O)NC1=O` [Example 101, (S)-1-(5-(3-((1′-(4-(1-Cyclopropoxy-2-hydroxy-1-phenylethyl)-6-(6-methyl-7-oxo-6,7-dihydro-1H-pyrrolo[2,3-c]pyridin-4-yl)quinazolin-2-yl)-4-methyl-[1,4′-bipiperidin]-4-yl)amino)prop-1-yn-1-yl)-2-methoxyphenyl)dihydropyrimidine-2,4(1H,3H)-dione] the same measures were 0.083 nM and 0.087 nM.
`Cn1cc(-c2ccc3nc(N4CC(OC5CCN(C(=O)c6cccc(N7CCC(=O)NC7=O)c6)CC5)C4)nc([C@@](CO)(OC4CC4)c4ccccc4)c3c2)c2cc[nH]c2c1=O` [Example 103, (S)-1-(3-(4-((1-(4-(1-Cyclopropoxy-2-hydroxy-1-phenylethyl)-6-(6-methyl-7-oxo-6,7-dihydro-1H-pyrrolo[2,3-c]pyridin-4-yl)quinazolin-2-yl)azetidin-3-yl)oxy)piperidine-1-carbonyl)phenyl)dihydropyrimidine-2,4(1H,3H)-dione]: in experiment [1], the DC50 amounted to 0.045 nM. Moreover, the IC50 in the experiment on AsPC-1/Cas9 cell line (Homo sapiens, ASPC1, 120 h) turned out to be 0.073 nM.
In the same order, the values of `COc1ccc(C(=O)NC2(C)CCN(CC3CCN(c4nc(C(CO)(OC5CC5)c5ccccc5)c5cc(-c6cn(C)c(=O)c7occc67)ccc5n4)CC3)CC2)cc1N1CCC(=O)NC1=O` (centres unmarked) [Example 108, N-(1-((1-(4-(1-Cyclopropoxy-2-hydroxy-1-phenylethyl)-6-(6-methyl-7-oxo-6,7-dihydrofuro[2,3-c]pyridin-4-yl)quinazolin-2-yl)piperidin-4-yl)methyl)-4-methylpiperidin-4-yl)-3-(2,4-dioxotetrahydropyrimidine-1(2H)-yl)-4-methoxybenzamide] are 0.21 nM and 0.23 nM.
In the same order, the values of `COc1ccc(C(=O)N2C[C@H](C)N(C3CCN(c4nc([C@@](CN)(OC5CC5)c5ccccc5)c5cc(-c6cn(C)c(=O)c7[nH]ccc67)ccc5n4)CC3)C[C@H]2C)cc1N1CCC(=O)NC1=O` [Example 114, 1-(5-((2R,5 S)-4-(1-(4-((R)-2-Amino-1-cyclopropoxy-1-phenylethyl)-6-(6-methyl-7-oxo-6,7-dihydro-1H-pyrrolo[2,3-c]pyridin-4-yl)quinazolin-2-yl)piperidin-4-yl)-2,5-dimethylpiperazine-1-carbonyl)-2-methoxyphenyl)dihydropyrimidine-2,4(1H,3H)-dione] are 0.33 nM and 0.11 nM.
On to `COc1ccc(C(=O)N2C[C@H](C)N(CC3CCN(c4nc([C@@](CN)(OC5CC5)c5ccccc5)c5cc(-c6cn(C)c(=O)c7[nH]ccc67)ccc5n4)CC3)C[C@H]2C)cc1N1CCC(=O)NC1=O` [Example 115, 1-(5-((2R,5 S)-4-((1-(4-((R)-2-Amino-1-cyclopropoxy-1-phenylethyl)-6-(6-methyl-7-oxo-6,7-dihydro-1H-pyrrolo[2,3-c]pyridin-4-yl)quinazolin-2-yl)piperidin-4-yl)methyl)-2,5-dimethylpiperazine-1-carbonyl)-2-methoxyphenyl)dihydropyrimidine-2,4-(1H,3H)-dione], for which the DC50 in experiment [1] worked out at 0.15 nM. Besides, the concentration for half-maximal inhibition (IC50) in the experiment with AsPC-1/Cas9 cell line (Homo sapiens, ASPC1, 120 h) came to 0.11 nM.
In the case of `CNCCN(C)C(=O)OCC(OC1CC1)(c1ccccc1)c1nc(N2CCC(CN3C[C@@H](C)N(C(=O)c4ccc(OC)c(N5CCC(=O)NC5=O)c4)C[C@@H]3C)CC2)nc2ccc(-c3cn(C)c(=O)c4[nH]ccc34)cc12` (stereo partly drawn) [Example 119, 2-Cyclopropoxy-2-(2-(4-(((2S,5R)-4-(3-(2,4-dioxotetrahydropyrimidine-1(2H)-yl)-4-methoxybenzoyl)-2,5-dimethylpiperazin-1-yl)methyl)piperidin-1-yl)-6-(6-methyl-7-oxo-6,7-dihydro-1H-pyrrolo[2,3-c]pyridin-4-yl)quinazolin-4-yl)-2-phenylethyl methyl(2-(methylamino)ethyl)carbamate], the DC50 in experiment [1] amounted to 1.6 nM. Moreover, in the experiment on AsPC-1/Cas9 cell line (Homo sapiens, ASPC1, 120 h), the IC50 was determined as 0.23 nM.
For `CNCCN(C)C(=O)OCC(OC1CC1)(c1ccccc1)c1nc(N2CCC(C#Cc3ccc(OC)c(N4CCC(=O)NC4=O)c3)CC2)nc2ccc(-c3cn(C)c(=O)c4[nH]ccc34)cc12` (centres unmarked) [Example 120, 2-Cyclopropoxy-2-(2-(4-((3-(2,4-dioxotetrahydropyrimidine-1(2H)-yl)-methoxyphenyl)ethynyl)piperidin-1-yl)-6-(6-methyl-7-oxo-6,7-dihydro-1H-pyrrolo[2,3-c]pyridin-4-yl)quinazolin-4-yl)-2-phenylethyl methyl(2-(methylamino)ethyl)carbamate] the same measures were 2.9 nM and 0.58 nM.
For the compound `Cc1cc(-c2ccc3nc(N4CCC(CN5CCN(C(=O)COc6cccc7c6C(=O)N(C6CCC(=O)NC6=O)C7=O)CC5)CC4)nc(C(CO)(OC4CC4)c4ccccc4)c3c2)cn(C)c1=O` (centres unmarked) [Example 122, 4-(2-(4-((1-(4-(1-Cyclopropoxy-2-hydroxy-1-phenylethyl)-6-(1,5-dimethyl-6-oxo-1,6-dihydropyridin-3-yl)quinazolin-2-yl)piperidin-4-yl)methyl)piperazin-1-yl)-2-oxoethoxy)-2-(2,6-dioxopiperidin-3-yl)isoindoline-1,3-dione], the DC50 in experiment [1] is 0.15 nM. The IC50 in the experiment on AsPC-1/Cas9 cell line (Homo sapiens, ASPC1, 120 h) stood at 4.9 nM.

The values are drawn from patent publication US20240148895A1, “ANTIBODY-DRUG CONJUGATE” (Eisai R&D Management Co., Ltd., priority 2022, published 2024).
